# Where a SMILES comes first, the peptide text is derived from it. Side-chain parts run from the residue outwards. [ ]: non-standard residue; d: D form. The star is where a group is joined. d2Nal(N,N-C(O)(CH2)4) = O=C1CCCCN1[C@H](Cc1ccc2ccccc2c1)C(=O)*; d2Nal(N,N-(CH2)3CO) = O=C1CCCN1[C@H](Cc1ccc2ccccc2c1)C(=O)*; Shikimoyl = O=C(C1=C[C@@H](O)[C@@H](O)[C@H](O)C1)*; Acetyl(2-oxopyrrolidin-1-yl) = O=C1CCCN1CC(=O)*; dPhe(4-Cl) = N[C@H](Cc1ccc(Cl)cc1)C(=O)O; d1Nal = N[C@H](Cc1cccc2ccccc12)C(=O)O; d(hCit) = NC(=O)NCCCC[C@@H](N)C(=O)O; Lys(iPr) = CC(C)NCCCC[C@H](N)C(=O)O; NMeY = CN[C@@H](Cc1ccc(O)cc1)C(=O)O; dCit = NC(=O)NCCC[C@@H](N)C(=O)O; hArg = N=C(N)NCCCC[C@H](N)C(=O)O; d3Pal = N[C@H](Cc1cccnc1)C(=O)O; Nicotinoyl = O=C(c1cccnc1)*
# Target: T1, LHRH (Rattus norvegicus, UniProt P30969)
# T1 construct: endogenous in cells
# T1 sequence (P30969 1-327): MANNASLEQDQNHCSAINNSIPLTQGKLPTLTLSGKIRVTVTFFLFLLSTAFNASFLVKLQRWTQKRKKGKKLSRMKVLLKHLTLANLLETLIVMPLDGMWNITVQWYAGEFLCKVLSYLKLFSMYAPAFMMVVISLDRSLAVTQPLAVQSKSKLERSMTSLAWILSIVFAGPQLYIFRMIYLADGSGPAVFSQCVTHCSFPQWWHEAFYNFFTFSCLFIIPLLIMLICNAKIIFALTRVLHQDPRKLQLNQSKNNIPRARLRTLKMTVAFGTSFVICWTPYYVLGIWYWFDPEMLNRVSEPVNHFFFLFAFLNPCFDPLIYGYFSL
# Assay: in vitro test for LHRH antagonist potency (pA2)
# Type: cell-based
# Details: negative logarithm of the antagonist concentration required to shift the response curve produced by the agonist leuprolide to two-fold higher concentration
# Method: Representative compounds of the present invention were evaluated in an in vitro test for LHRH antagonist potency (pA2). The test employed the method detailed in F. Haviv, et al. J. Med. Chem., 32:2340-2344 (1989). The values of pA2 are the negative logarithms of the concentration of the particular antagonist test compound required to shift the response curve produced by the agonist leuprolide to two-fold higher concentration. (Leuprolide is disclosed and claimed in U.S. Pat. No. 4,005,063.) Typically pA2 values of 9.5 or greater are indicative of good LHRH antagonist potency, with values of 10.0 or greater being preferred.
row,SMILES,Kb
1,"CC(C)C[C@H](NC(=O)[C@@H](CCCCNC(=O)C1=C[C@@H](O)[C@@H](O)[C@H](O)C1)NC(=O)[C@H](Cc1ccc(O)cc1)N(C)C(=O)[C@H](CO)NC(=O)[C@@H](Cc1cccnc1)NC(=O)[C@@H](Cc1ccc(Cl)cc1)NC(=O)[C@@H](Cc1ccc2ccccc2c1)N1CCCC1=O)C(=O)N[C@@H](CCCCNC(=N)N)C(=O)N1CCC[C@H]1C(=O)N[C@H](C)C(N)=O [Example 4, 5LactD2Nal^1 -D4ClPhe^2 -D3Pal^3 -Ser^4 -NMeTyr^5 -DLys(N-epsilon-Shik)^6 -Leu^7 -Harg^8 -Pro^9 -DAla^10 NH2] ({d2Nal(N,N-(CH2)3CO)}-[dPhe(4-Cl)][d3Pal]S[NMeY][dK](Shikimoyl)L[hArg]P[dA]-NH2)",0.00692 nM
2,"CC(C)C[C@H](NC(=O)[C@@H](CCCCNC(=O)C1=C[C@@H](O)[C@@H](O)[C@H](O)C1)NC(=O)[C@H](Cc1ccc(O)cc1)N(C)C(=O)[C@H](CO)NC(=O)[C@@H](Cc1cccnc1)NC(=O)[C@@H](Cc1ccc(Cl)cc1)NC(=O)[C@@H](Cc1ccc2ccccc2c1)N1CCCC1=O)C(=O)N[C@@H](CCCNC(=N)N)C(=O)N1CCC[C@H]1C(=O)N[C@H](C)C(N)=O [Example 2, 5LactD2Nal^1 -D4ClPhe^2 -D3Pal^3 -Ser^4 -NMeTyr^5 -DLys(N-epsilon-Shik)^6 -Leu^7 -Arg^8 -Pro^9 -DAla^10 NH2] ({d2Nal(N,N-(CH2)3CO)}-[dPhe(4-Cl)][d3Pal]S[NMeY][dK](Shikimoyl)LRP[dA]-NH2)",0.0263 nM
3,"CC(C)C[C@H](NC(=O)[C@@H](CCCNC(N)=O)NC(=O)[C@H](Cc1ccc(O)cc1)N(C)C(=O)[C@H](CO)NC(=O)[C@@H](Cc1cccnc1)NC(=O)[C@@H](Cc1ccc(Cl)cc1)NC(=O)[C@@H](Cc1ccc2ccccc2c1)N1CCCC1=O)C(=O)N[C@@H](CCCNC(=N)N)C(=O)N1CCC[C@H]1C(=O)N[C@H](C)C(N)=O [Example 1, 5LactD2Nal^1 -D4ClPhe^2 -D3Pal^3 -Ser^4 -NMeTyr^5 -DCit^6 -Leu^7 -Arg^8 -Pro^9 -DAla^10 NH2] ({d2Nal(N,N-(CH2)3CO)}-[dPhe(4-Cl)][d3Pal]S[NMeY][dCit]LRP[dA]-NH2)",0.00813 nM
4,"CC(C)C[C@H](NC(=O)[C@@H](CCCCNC(=O)CNC(=O)C1=C[C@@H](O)[C@@H](O)[C@H](O)C1)NC(=O)[C@H](Cc1ccc(O)cc1)N(C)C(=O)[C@H](CO)NC(=O)[C@@H](Cc1cccnc1)NC(=O)[C@@H](Cc1ccc(Cl)cc1)NC(=O)[C@@H](Cc1ccc2ccccc2c1)N1CCCCC1=O)C(=O)N[C@@H](CCCCNC(=N)N)C(=O)N1CCC[C@H]1C(=O)N[C@H](C)C(N)=O [Example 11, 6LactD2Nal^1 -D4ClPhe^2 -D3Pal^3 -Ser^4 -NMeTyr^5 -DLys(N-epsilon-Gly-Shik)^6 -Leu^7 -Harg^8 -Pro^9 -DAla^10 NH2] ({d2Nal(N,N-C(O)(CH2)4)}-[dPhe(4-Cl)][d3Pal]S[NMeY][dK]([Gly-Shikimoyl])L[hArg]P[dA]-NH2)",0.0209 nM
5,"CC(C)C[C@H](NC(=O)[C@@H](CCCCNC(=O)CNC(=O)C1=C[C@@H](O)[C@@H](O)[C@H](O)C1)NC(=O)[C@H](Cc1ccc(O)cc1)N(C)C(=O)[C@H](CO)NC(=O)[C@@H](Cc1cccnc1)NC(=O)[C@@H](Cc1ccc(Cl)cc1)NC(=O)[C@@H](Cc1ccc2ccccc2c1)N1CCCC1=O)C(=O)N[C@@H](CCCCNC(=N)N)C(=O)N1CCC[C@H]1C(=O)N[C@H](C)C(N)=O [Example 5, 5LactD2Nal^1 -D4ClPhe^2 -D3Pal^3 -Ser^4 -NMeTyr^5 -DLys(N-epsilon-Gly-Shik)^6 -Leu^7 -Harg^8 -Pro^9 -DAla^10 NH2] ({d2Nal(N,N-(CH2)3CO)}-[dPhe(4-Cl)][d3Pal]S[NMeY][dK]([Gly-Shikimoyl])L[hArg]P[dA]-NH2)",0.00646 nM
6,"CC(C)C[C@H](NC(=O)[C@@H](CCCCNC(=O)c1cccnc1)NC(=O)[C@H](Cc1ccc(O)cc1)N(C)C(=O)[C@H](CO)NC(=O)[C@@H](Cc1cccnc1)NC(=O)[C@@H](Cc1ccc(Cl)cc1)NC(=O)[C@@H](Cc1ccc2ccccc2c1)N1CCCCC1=O)C(=O)N[C@@H](CCCCNC(C)C)C(=O)N1CCC[C@H]1C(=O)N[C@H](C)C(N)=O [Example 13, 6LactD2Nal^1 -D4ClPhe^2 -D3Pal^3 -Ser^4 -NMeTyr^5 -DLys(N-epsilon-Nic)^6 -Leu^7 -Lys(N-epsilon-Isopropyl)^8 -Pro^9 -DAla^10 NH2] ({d2Nal(N,N-C(O)(CH2)4)}-[dPhe(4-Cl)][d3Pal]S[NMeY][dK](Nicotinoyl)L[Lys(iPr)]P[dA]-NH2)",0.0178 nM
7,"CC(C)C[C@H](NC(=O)[C@@H](CCCCNC(=O)C1=C[C@@H](O)[C@@H](O)[C@H](O)C1)NC(=O)[C@H](Cc1ccc(O)cc1)N(C)C(=O)[C@H](CO)NC(=O)[C@@H](Cc1cccnc1)NC(=O)[C@@H](Cc1ccc(Cl)cc1)NC(=O)[C@@H](Cc1ccc2ccccc2c1)N1CCCCC1=O)C(=O)N[C@@H](CCCCNC(=N)N)C(=O)N1CCC[C@H]1C(=O)N[C@H](C)C(N)=O [Example 10, 6LactD2Nal^1 -D4ClPhe^2 -D3Pal^3 -Ser^4 -NMeTyr^5 -DLys(N-epsilon-Shik)^6 -Leu^7 -Harg^8 -Pro^9 -DAla^10 NH2] ({d2Nal(N,N-C(O)(CH2)4)}-[dPhe(4-Cl)][d3Pal]S[NMeY][dK](Shikimoyl)L[hArg]P[dA]-NH2)",0.0209 nM
8,"CC(C)C[C@H](NC(=O)[C@@H](CCCCNC(=O)CNC(=O)C1=C[C@@H](O)[C@@H](O)[C@H](O)C1)NC(=O)[C@H](Cc1ccc(O)cc1)N(C)C(=O)[C@H](CO)NC(=O)[C@@H](Cc1cccnc1)NC(=O)[C@@H](Cc1ccc(Cl)cc1)NC(=O)[C@@H](Cc1ccc2ccccc2c1)N1CCCCC1=O)C(=O)N[C@@H](CCCNC(=N)N)C(=O)N1CCC[C@H]1C(=O)N[C@H](C)C(N)=O [Example 9, 6LactD2Nal^1 -D4ClPhe^2 -D3Pal^3 -Ser^4 -NMeTyr^5 -DLys(N-epsilon-Gly-Shik)^6 -Leu^7 -Arg^8 -Pro^9 -DAla^10 NH2] ({d2Nal(N,N-C(O)(CH2)4)}-[dPhe(4-Cl)][d3Pal]S[NMeY][dK]([Gly-Shikimoyl])LRP[dA]-NH2)",0.0355 nM
9,"CC(C)C[C@H](NC(=O)[C@@H](CCCCNC(=O)C1=C[C@@H](O)[C@@H](O)[C@H](O)C1)NC(=O)[C@H](Cc1ccc(O)cc1)N(C)C(=O)[C@H](CO)NC(=O)[C@@H](Cc1cccnc1)NC(=O)[C@@H](Cc1ccc(Cl)cc1)NC(=O)[C@@H](Cc1ccc2ccccc2c1)N1CCCCC1=O)C(=O)N[C@@H](CCCNC(=N)N)C(=O)N1CCC[C@H]1C(=O)N[C@H](C)C(N)=O [Example 8, 6LactD2Nal^1 -D4ClPhe^2 -D3Pal^3 -Ser^4 -NMeTyr^5 -DLys(N-epsilon-Shik)^6 -Leu^7 -Arg^8 -Pro^9 -DAla^10 NH2] ({d2Nal(N,N-C(O)(CH2)4)}-[dPhe(4-Cl)][d3Pal]S[NMeY][dK](Shikimoyl)LRP[dA]-NH2)",0.0129 nM
10,"CC(C)C[C@H](NC(=O)[C@@H](CCCCNC(=O)c1cccnc1)NC(=O)[C@H](Cc1ccc(O)cc1)N(C)C(=O)[C@H](CO)NC(=O)[C@@H](Cc1cccnc1)NC(=O)[C@@H](Cc1ccc(Cl)cc1)NC(=O)[C@@H](Cc1ccc2ccccc2c1)N1CCCC1=O)C(=O)N[C@@H](CCCCNC(C)C)C(=O)N1CCC[C@H]1C(=O)N[C@H](C)C(N)=O [Example 7, 5LactD2Nal^1 -D4ClPhe^2 -D3Pal^3 -Ser^4 -NMeTyr^5 -DLys(N-epsilon-Nic)^6 -Leu^7 -Lys(N-epsilon-Isopropyl)^8 -Pro^9 -DAla^10 NH2] ({d2Nal(N,N-(CH2)3CO)}-[dPhe(4-Cl)][d3Pal]S[NMeY][dK](Nicotinoyl)L[Lys(iPr)]P[dA]-NH2)",0.0372 nM
11,"CC(C)C[C@H](NC(=O)[C@@H](CCCCNC(=O)CNC(=O)C1=C[C@@H](O)[C@@H](O)[C@H](O)C1)NC(=O)[C@H](Cc1ccc(O)cc1)N(C)C(=O)[C@H](CO)NC(=O)[C@@H](Cc1cccnc1)NC(=O)[C@@H](Cc1ccc(Cl)cc1)NC(=O)[C@@H](Cc1ccc2ccccc2c1)N1CCCC1=O)C(=O)N[C@@H](CCCNC(=N)N)C(=O)N1CCC[C@H]1C(=O)N[C@H](C)C(N)=O [Example 3, 5LactD2Nal^1 -D4ClPhe^2 -D3Pal^3 -Ser^4 -NMeTyr^5 -DLys(N-epsilon-Gly-Shik)^6 -Leu^7 -Arg^8 -Pro^9 -DAla^10 NH2] ({d2Nal(N,N-(CH2)3CO)}-[dPhe(4-Cl)][d3Pal]S[NMeY][dK]([Gly-Shikimoyl])LRP[dA]-NH2)",0.0209 nM
12,"CC(C)C[C@H](NC(=O)[C@@H](CCCNC(N)=O)NC(=O)[C@H](Cc1ccc(O)cc1)N(C)C(=O)[C@H](CO)NC(=O)[C@@H](Cc1cccc2ccccc12)NC(=O)[C@@H](Cc1ccc(Cl)cc1)NC(=O)CN1CCCC1=O)C(=O)N[C@@H](CCCNC(=N)N)C(=O)N1CCC[C@H]1C(=O)N[C@H](C)C(N)=O [Example 14, 5LactGly^1 -D4ClPhe^2 -D1Nal^3 -Ser^4 -NMeTyr^5 -DCit^6 -Leu^7 -Arg^8 -Pro^9 -DAla^10 NH2] ({Acetyl(2-oxopyrrolidin-1-yl)}-[dPhe(4-Cl)][d1Nal]S[NMeY][dCit]LRP[dA]-NH2)",0.0178 nM
13,"CC(C)C[C@H](NC(=O)[C@@H](CCCCNC(N)=O)NC(=O)[C@H](Cc1ccc(O)cc1)NC(=O)[C@H](CO)NC(=O)[C@@H](Cc1cccnc1)NC(=O)[C@@H](Cc1ccc(Cl)cc1)NC(=O)[C@@H](Cc1ccc2ccccc2c1)N1CCCC1=O)C(=O)N[C@@H](CCCCNC(C)C)C(=O)N1CCC[C@H]1C(=O)N[C@H](C)C(N)=O [Example 12, 5LactD2Nal^1 -D4ClPhe^2 -D3Pal^3 -Ser^4 -Tyr^5 -DHcit^6 -Leu^7 -Lys(isp)^8 -Pro^9 -DAla^10NH2] ({d2Nal(N,N-(CH2)3CO)}-[dPhe(4-Cl)][d3Pal]SY[d(hCit)]L[Lys(iPr)]P[dA]-NH2)",0.0178 nM
